Values quoted from earlier work in patent US5672605A, “Macrolide immunomodulators” (Abbott Laboratories, priority 1995, dated 1997).

Experiments:
Candida albicans = settings: particularly against Candida albicans, both in vitro and in vivo
[1] = rapamycin alone or in combination with picibanil
[2] = system: experimental allergic encephalomyelitis model, a model for multiple sclerosis; settings: in vivo
[3] = system: adjuvant arthritis model, a model for rheumatoid arthritis; settings: in vivo

Compound	binding to FKBP-12, in words (FKBP-12)	antifungal activity, in words (Candida albicans)	antitumor activity, in words [1]	immunosuppressant effect in experimental allergic encephalomyelitis model [2]	immunosuppressant effect in adjuvant arthritis model [3]	inhibition of the formation of IgE-like antibodies (IgE-like antibodies)
CO[C@H]1C[C@@H]2CC[C@@H](C)[C@@](O)(O2)C(=O)C(=O)N2CCCC[C@H]2C(=O)O[C@H]([C@H](C)C[C@@H]2CC[C@@H](O)[C@H](OC)C2)CC(=O)[C@H](C)/C=C(\C)[C@@H](O)[C@@H](OC)C(=O)[C@H](C)C[C@H](C)/C=C/C=C/C=C/1C [rapamycin]	binds to FKBP-12	antifungal activity	antitumor activity	effective as an immunosuppressant	effective as an immunosuppressant	effectively inhibit the formation of IgE-like antibodies
C=CC[C@@H]1/C=C(\C)C[C@H](C)C[C@H](OC)[C@H]2O[C@@](O)(C(=O)C(=O)N3CCCC[C@H]3C(=O)O[C@H](/C(C)=C/[C@@H]3CC[C@@H](O)[C@H](OC)C3)[C@H](C)[C@@H](O)CC1=O)[C@H](C)C[C@@H]2OC [FK-506]	binds to FKBP-12					
